The test system of series [1] is murine spleen cells. The experiment in a line: Induction of IFN-gamma from murine spleen cells (ELISpot). In kind it is cell-based. Particulars: mouse splenocytes, 48 hours incubation, FIG. 10. The protocol: (§1) The spleen was excised from a test animal. A single cell suspension was prepared using a nylon cell strainer (100 μm). The cells were washed once in complete RPMI medium at 1200 rpm for 7-10 minutes, whereupon the supernatant was poured off and the cells resuspended. 1 ml of “red blood cell lysing buffer” was added, and the mixture incubated for 1-2 minutes at RT. 5 ml of complete RPMI was added and the mixture centrifuged as above (C2).
(§2) The supernatant was poured off, the pellet resuspended and another 5 ml of complete RPML added. The cells were counted by dilution in trypan blue, so that between 50-100 cells were counted in the area.
(§3) Approximately 500,000 mouse splenocyte cells per well were incubated for 48 hours in the presence of the different oligonucleotides at the concentrations indicated. Specifically, SEQ.ID.NO 3, SEQ.ID.NO 4, and SEQ.ID.NO 7. Following incubation the wells were developed according to the kit suppliers recommendations and the average number of positive spots per well were determined using a AID ELISpot reader system, (Strassberg Germany).
Regarding the production of IFN-gamma, mouse splenocytes were treated as described above, with the intention to monitor levels of IFN-gamma by Elispot asssy. Identical conditions and concentrations of oligonucleotides where used.
(§4) Elispot assays where performed according to the manufactures recommended guidelines (MabTech) and the plates were analyzed using an AID ELISpot reader system (Autoimmun Diagnostika GmbH, Strassberg, Germany).

The subject of series [2] is LPS-induced airway inflammation in mice. The experiment in a line: Third LPS induced asthma study in mice, BALF cell counts. Format: in vivo. Particulars: for number of infiltrating inflammatory cells in the BAL fluid: oligonucleotides 150 μg/animal tracheal 18 h prior to LPS, dexamethasone 5 mg/kg i.p. 1 h before, FIG. 6. The protocol: As with examples 1 and 2, aim of the study was to examine the pharmaceutical effects of SEQ. ID. NO. 3 using airway inflammation as disease endpoint, and to compare the efficacy with that of corticosteroids. In addition, a number of control oligonucleotides were included being SEQ.ID.NO 4, and SEQ.ID.NO 7. The induction of LPS induced asthma and the protocol of analyses was conducted as described in Example 2.
Briefly, LPS-induced airway inflammation in mice was treated with SEQ.ID.NOs 3, 4 and 7 (150 μg/animal) administered by tracheal instillation 18 h prior to challenge with 5 μg LPS. The untreated group represents healthy individuals and mice in the control group were given solvent only (H2O+LPS). The control treatment of dexamethasone (5 mg/kg, i.p.) was given one hour before LPS instillation. Analysis of BAL fluid was performed 20 hours after LPS instillation. The total number of leukocytes and neutrophils in BAL fluid is shown. Data expressed as mean±SD (n=6). ***p<0.001, *p<0.05, using One-way ANOVA with Dunnett's post hoc corrections versus control group.

Series [3] deals with murine spleen cells. The experiment in a line: Induction of IL-10 from murine spleen cells (ELISpot). The settings on record: mouse splenocytes, 48 hours incubation; for induction of IL-10 (positive spots per well): FIG. 9. In kind it is cell-based. The protocol: as §1, §2, §3, §4
For series [4], the system named is human PBMC. The series is described as follows: Induction of IFN-gamma from healthy human PBMC (ELISpot). In kind it is cell-based. The settings on record: PBMC from 7 healthy individuals, 48 hours, FIG. 12. The protocol: (§5) Whole blood was obtained from healthy blood donors. PBMCs were prepared from 30 ml whole blood according to the following protocol:
(§6) 30 ml blood was transferred directly into heparinized tubes. All blood was transferred into one 50 ml Falcon tube and PBS added up to 50 ml. 15 ml Ficoll (17-1440-03, obtained from Amersham Bioscience AB, Uppsala) was then added into two falcon tubes (50 ml). The PBS-treated blood was then carefully added on the top of to Ficoll, 25 ml to each tube. The tubes were then centrifuged 25 min at 1700 RPM at RT (20° C.).
RPMIc medium was prepared under sterile conditions, using a 0.22 uM filter. (RPMIc denotes a RPMI 1640 culture medium (R0883, Sigma) supplemented with 5% heat-inactivated (56° C.,1 h) FCS 1.5 mM L-glutamine (G7513, Sigma), 100 U/ml penicillin and 100 ug/ml streptomycin, PEST (P0781, Sigma), hepes (H0887, Sigma), and gentamycin (G1272, Sigma)). […]
The cells were counted and left in PBS, then centrifuged at 1200 RPM, 10 min. Medium was then added to obtain the concentration of interest, and the cells counted (16 squares)×3. The mean value was calculated and multiplied with the dilution factor×10^4=cells/ml. […]
Elispot assays where performed according to the manufactures recommended guidelines (MabTech) and the plates were analyzed using an AID ELISpot reader system (Autoimmun Diagnostika GmbH, Strassberg, Germany). […]

The test system of series [5] is human PBMC. The experiment in a line: Induction of IL-10 from healthy human PBMC (ELISpot). Particulars: PBMC from 5 healthy individuals, 48 hours; for induction of IL-10 producing cells: FIG. 11. In kind it is cell-based. The protocol:
as §5, §6
(§7) RPMIc medium was prepared under sterile conditions, using a 0.22 uM filter. (RPMIc denotes a RPMI 1640 culture medium (R0883, Sigma) supplemented with 5% heat-inactivated (56° C.,1 h) FCS 1.5 mM L-glutamine (G7513, Sigma), 100 U/ml penicillin and 100 ug/ml streptomycin, PEST (P0781, Sigma), hepes (H0887, Sigma), and gentamycin (G1272, Sigma)).
(§8) The interphase was carefully pipetted from the two tubes into 2x 50mi Falcon tubes. PBS was added up to 50 ml in each tube, and the tubes centrifuged for 10 min at 1700 RPM (4° C.).
(§9) The supernatant was discarded, and PBS added to 30 ml, whereupon the tubes were centrifuged at 10 min at 1500 RPM (4° C.). Again, the supernatant was discarded, 10 ml PBS added, and the pellets from the two falcon tubes pooled.
(§10) The cells were counted and left in PBS, then centrifuged at 1200 RPM, 10 min. Medium was then added to obtain the concentration of interest, and the cells counted (16 squares)×3. The mean value was calculated and multiplied with the dilution factor×10^4=cells/ml. Diluting the cells to 10 million/ml will result in 500.000 cells/50 ul medium, 6 million/ml will be 300.000/50 ul medium.
as §4
Approximately 500,000 PBMC cells per well, derived from blood from healthy human donors, were incubated for 48 hours in the presence of the different oligonucleotides. Specifically, SEQ.ID.NO 1, SEQ.ID.NO 2, SEQ.ID.NO 6 and SEQ.ID.NO 8. Following incubation, the wells were developed according to the kit supplier's recommendations and the average number of positive cells producing IL-10 per well were counted using an AID ELISpot reader system, (Autoimmun Diagnostika GmbH, Strassberg, Germany).

Series [6] concerns human PBMC. The experiment in a line: Induction of IFN-alpha from healthy human PBMC (ELISpot). In kind it is cell-based. Particulars: PBMC from 10 healthy individuals, 48 hours; for induction of IFN-alpha producing cells: FIG. 13. The protocol:
as §5, §6, §7, §8, §9, §10, §4
For this assay again 500,000 PBMC cells per well, derived from healthy human blood were incubated for 48 hours in the presence of the different oligonucleotides. Specifically, SEQ.ID.NO 1, SEQ.ID.NO 2, and SEQ.ID.NO 8. Following incubation, the wells were developed according to the kit suppliers recommendations and the average number of positive cells producing IFN-alpha per well were determined using an AID ELISpot reader.

Regarding “5′-G*A*A*ACAGATGCTCCAT*G*G*T-3′ (antisense GAAACAGATGCTCCATGGT; listed as DNA, chemistry not fully specified) [SEQ.ID.NO 4, (Mu p65 rev)AS]”, the “induction of IFN-gamma compared to medium alone” value in the series with murine spleen cells [1] is “no such inducing potential”. In series [2] (150 μg/animal, FIG. 7, significance if the non-responding control individual is excluded), the “influx of leukocytes in BALF compared to the control group” value is reported as “no effect”. Moreover, in series [2] (150 μg/animal, FIG. 8, significance if the non-responding control individual is excluded), the “influx of neutrophils in BALF compared to the control group” value was “no effect”. Further, the “number of infiltrating inflammatory cells in the BAL fluid” value in series [2] was “little effect”. The “induction of IL-10 (positive spots per well)” value in the series with murine spleen cells [3] is recorded as “no induction”.

As for “5′-G*G*A*ACAGTTGCTCCAT*G*G*C-3′ (antisense GGAACAGTTGCTCCATGGC; listed as DNA, chemistry not fully specified) [SEQ.ID.NO 2, (Hu p65 rev)AS]”, in the series with human PBMC [4], the “induction of IFN-gamma producing cells versus background” value is recorded as “background level is not exceeded”. In the series on human PBMC [5], the “concentration from which IL-10 producing cells are induced” value is recorded as “around 100 uM” and the “induction of IL-10 producing cells” value is “failed to induce IL-10”. For the same substance, the “induction of IFN-alpha producing cells” value in the series on human PBMC [6] is “fails to induce any measurable levels of IFN-alpha”.

As to “5′-G*G*T GCA TCG ATG CAG*G*G*G*G*G-3′ (GGTGCATCGATGCAGGGGGG; listed as DNA, chemistry not fully specified) [SEQ.ID.NO 6]”, the “induction of IL-10 producing cells” value in the series on human PBMC [5] is on record as “strong potential to induce IL-10”.

On to “5′-T*C*C*A*T*G*A*C*G*T*T*C*C*T*G*A*C*G*T*T-3′ [SEQ.ID.NO 7]”, for which, in the series with murine spleen cells [1], the “induction of IFN-gamma compared to medium alone” value is on record as “capable of inducing significant levels of IFN-gamma”. The “number of infiltrating inflammatory cells in the BAL fluid” value in series [2] is listed as “more dramatic level of inhibition being as effective as dexamethasone”. In the series on murine spleen cells [3], the “concentration at which IL-10 producing cells are first induced” value was 0.1 µM and the “induction of IL-10 (positive spots per well)” value is recorded as “induce significant levels of IL-10”.

Take “5′-T*C*G*T*C*G*T*T*T*T*G*T*C*G*T*T*T*T*G*T*C*G*T*T-3′ [SEQ.ID.NO 8]”: the “induction of IL-10 producing cells” value with human PBMC [5] was “strong potential to induce IL-10”. Further, in the series on human PBMC [6], the “concentration at which induction of IFN-alpha starts / is apparent” value was determined as 0.1 µM and the “induction of IFN-alpha producing cells” value is on record as “strong potential to induce IFN-alpha”.

The values are drawn from patent US8895522B2, “Composition and method for the prevention, treatment and/or alleviation of an inflammatory disease” (Index Pharmaceuticals AB, priority 2005, dated 2014).
